In patent US20240025906A1 (NEURON23, INC., priority 2022, published 2024):

Columns and labels:
[1] = target: T1, TYK2 JH2 (Homo sapiens, UniProt P29597); test: TYK2 JH2 binding assay (KINOMEscan KdELECT competitive binding); conditions: TYK2 JH2 domain, DiscoverX KINOMEscan KdELECT (Assay A); read-out: Biochemical TYK2_DiscoverX_JH2_BND_Kd
T1 construct: purchased DiscoverX (KINOMEscan KdELECT service); host or cells: E. coli BL21-derived (T7 phage display) or HEK-293
Procedure, shortened: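 Test compounds were titrated in 11 three-fold steps against JH2 fragment captured on ligand-loaded magnetic beads, with 1 h incubation at room temperature and DMSO at 0.9%. Eluted kinase was quantified by qPCR, and Kd was fitted from the dose series.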

[2] = test system: JAK1/TYK2 pSTAT5 (Tyr694/699) in THP-1 cell line; test: IFNa-stimulated JAK1/TYK2 pSTAT5 (Tyr694/699) inhibition cellular assay, AlphaLISA; format: cell-based; conditions: Homo sapiens; THP-1 cells, IFNa-stimulated, AlphaLISA (Assay B); read-out: Cellular_THP1_IFNa-pSTATS_TYK2
Procedure, shortened: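 Compound dilutions were dispensed first, and HBSS-suspended THP-1 cells were added on top (final top concentration 10000 nM, 6-fold series). After 1 h at 37 °C, IFNa (100 ng/mL as added) was applied for 30 min. Cells were then lysed and pSTAT5 was quantified by AlphaLISA.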

T1 sequence (P29597 589-875 limits assumed): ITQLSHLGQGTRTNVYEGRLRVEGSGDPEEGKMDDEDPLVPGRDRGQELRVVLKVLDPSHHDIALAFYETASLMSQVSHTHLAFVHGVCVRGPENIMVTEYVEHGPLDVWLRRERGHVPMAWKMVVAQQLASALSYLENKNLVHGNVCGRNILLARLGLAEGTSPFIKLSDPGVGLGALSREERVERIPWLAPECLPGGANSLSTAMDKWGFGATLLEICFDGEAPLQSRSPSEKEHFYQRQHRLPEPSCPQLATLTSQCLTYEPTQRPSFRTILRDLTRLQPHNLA

Compound	Kd [1] [nM]	IC50 [2] [nM]
CNc1ncc(-c2nc3cc(N4CCOC[C@H]4C)ccc3o2)c2cc(NC(=O)C3CC3)ncc12 [Example 309, (R)-N-(8-(methylamino)-5-(5-(3-methylmorpholino)benzo[d]oxazol-2-yl)-2,7-naphthyridin-3-yl)cyclopropanecarboxamide]	≤ 100	≤ 500
CNc1ncc(-c2nc3cc(N4CCC5(CC4)COC5)ccc3o2)c2cc(NC(=O)C3CC3)ncc12 [Example 310, N-(5-(5-(2-oxa-7-azaspiro[3.5]nonan-7-yl)benzo[d]oxazol-2-y1)~8-(methylamino)-2,7-naphthyridin-3-yl)cyclopropanecarboxamide]	≤ 100	≤ 500
CNc1ncc(-c2nc3cc(N4C5CCC4COC5)ccc3o2)c2cc(NC(=O)C3CC3)ncc12 [Example 311, N-(5-(5-(3-oxa-8-azabicyclo[3.2.1]octan-8-yl)benzo[d]oxazol-2-y1)-8-(methylamino)-2,7-naphthyridin-3-yl)cyclopropanecarboxamide]	≤ 100	≤ 500
CNc1ncc(-c2nc3cc(OC4(C)COC4)ccc3o2)c2cc(NC(=O)C3CC3)ncc12 [Example 312, N-(8-(methylamino)-5-(5-((3-methyloxetan-3-yl)oxy)benzo[d]oxazol-2-yl)-2,7-naphthyridin-3-yl)cyclopropanecarboxamide]	≤ 100	≤ 500
CNc1ncc(-c2nc3cc(N4CCCC5(CCO5)C4)ccc3o2)c2cc(NC(=O)C3CC3)ncc12 (stereo not drawn) [Example 313, N-(5-(5-(1-oxa-6-azaspiro[3.5]nonan-6-yl)benzo[d]oxazol-2-yl)-8-(methylamino)-2,7-naphthyridin-3-yl)cyclopropanecarboxamide]	≤ 100	≤ 500
CNc1ncc(-c2nc3cc(N4CCN(C5COC5)CC4)ccc3o2)c2cc(NC(=O)C3CC3)ncc12 [Example 314, N-(8-(methylamino)-5-(5-(4-(oxetan-3-yl)piperazin-1-yl)benzo[d]oxazol-2-yl)-2,7-naphthyridin-3-yl)cyclopropanecarboxamide]	≤ 100	≤ 500
CNc1ncc(-c2nc3cc(N4C[C@@H](C)O[C@@H](C)C4)ccc3o2)c2cc(NC(=O)C3CC3)ncc12 [Example 315, N-(5-(5-((2R,6S)~2,6-dimethylmorpholino)benzo[d]oxazol-2-yl)-8-(methylamino)-2,7-naphthyridin-3-yl)cyclopropanecarboxamide]	≤ 100	≤ 500
CNc1ncc(-c2nc3cc(N4CCOC(C)(C)C4)ccc3o2)c2cc(NC(=O)C3CC3)ncc12 [Example 317, N-(5-(5-(2,2-dimethylmorpholino)benzo[d]oxazol-2-yl)-8-(methylamino)-2,7-naphthyridin-3-yl)cyclopropanecarboxamide]	≤ 100	≤ 500
CNc1ncc(-c2nc3cc(N4CCCOCC4)ccc3o2)c2cc(NC(=O)C3CC3)ncc12 [Example 318, N-(5-(5-(1,4-oxazepan-4-yl)benzo[d]oxazol-2-yl)-8-(methylamino)-2,7-naphthyridin-3-yl)cyclopropanecarboxamide]	≤ 100	≤ 500
CNc1ncc(-c2nc3cc(N4CC(CC(F)F)C4)ccc3o2)c2cc(NC(=O)C3CC3)ncc12 [Example 319, N-(5-(5-(3-(2,2-difluoroethyl)azetidin-1-yl)benzo[d]oxazol-2-yl)-8-(methylamino)-2,7-naphthyridin-3-yl)cyclopropanecarboxamide]	≤ 100	≤ 500
CNc1ncc(-c2nc3cc(N4CC[C@H]4C#N)ccc3o2)c2cc(NC(=O)C3CC3)ncc12 [Example 320, (S)—N-(5-(5-(2-cyanoazetidin-1-yl)benzo[d]oxazol-2-yl)-8-(methylamino)-2,7-naphthyridin-3-yl)cyclopropanecarboxamide]	≤ 100	≤ 500
CNc1ncc(-c2nc3cc(N4CC[C@H]4C(N)=O)ccc3o2)c2cc(NC(=O)C3CC3)ncc12 [Example 321, (S)-1-(2-(6-(cyclopropanecarboxamido)-1-(methylamino)-2,7-naphthyridin-4-yl)benzo[d]oxazol-5-yl)azetidine-2-carboxamide]	≤ 100	≤ 500
CNc1ncc(-c2nc3cc(N4CC5(CN(C(C)=O)C5)C4)ccc3o2)c2cc(NC(=O)C3CC3)ncc12 [Example 322, N-(5-(5-(6-acetyl-2,6-diazaspiro[3.3]heptan-2-yl)benzo[d]oxazol-2-yl)-8-(methylamino)-2,7-naphthyridin-3-yl)cyclopropanecarboxamide]	≤ 100	≤ 500
CNc1ncc(-c2nc3cc(N4CC(OCCC#N)C4)ccc3o2)c2cc(NC(=O)C3CC3)ncc12 [Example 323, N-(5-(5-(3-(2-cyanoethoxy)azetidin-1-yl)benzo[d]oxazol-2-yl)-8-(methylamino)-2,7-naphthyridin-3-yl)cyclopropanecarboxamide]	≤ 100	≤ 500
CNc1ncc(-c2nc3cc(N4CC(OCCOC)C4)ccc3o2)c2cc(NC(=O)C3CC3)ncc12 [Example 324, N-(5-(5-(3-(2-methoxyethoxy)azetidin-1-yl)benzo[d]oxazol-2-yl)-8-(methylamino)-2,7-naphthyridin-3-yl)cyclopropanecarboxamide]	≤ 100	≤ 500
CNc1ncc(-c2nc3cc(N4CC5CC(CN(C)C5)C4)ccc3o2)c2cc(NC(=O)C3CC3)ncc12 [Example 325, N-(5-(5-(7-methyl-3,7-diazabicyclo[3.3.1]nonan-3-yl)benzo[d]oxazol-2-yl)-8-(methylamino)-2,7-naphthyridin-3-yl)cyclopropanecarboxamide]	≤ 100	≤ 500
CNc1ncc(-c2nc3cc(N4CC5CC(CN(C(C)=O)C5)C4)ccc3o2)c2cc(NC(=O)C3CC3)ncc12 [Example 326, N-(5-(5-(7-acetyl-3,7-diazabicyclo[3.3.1]nonan-3-yl)benzo[d]oxazol-2-yl)-8-(methylamino)-2,7-naphthyridin-3-yl)cyclopropanecarboxamide]	≤ 100	≤ 500
CNc1ncc(-c2nc3cc(N4CC5CN(C)CC(C4)O5)ccc3o2)c2cc(NC(=O)C3CC3)ncc12 [Example 327, N-(5-(5-(7-methyl-9-oxa-3,7-diazabicyclo[3.3.1]nonan-3-yl)benzo[d]oxazol-2-yl)-8-(methylamino)-2,7-naphthyridin-3-yl)cyclopropanecarboxamide]	≤ 100	≤ 500
CNc1ncc(-c2nc3cc(N4CCCS4(=O)=O)ccc3o2)c2cc(NC(=O)C3CC3)ncc12 [Example 328, N-(5-(5-(1,1-dioxidoisothiazolidin-2-yl)benzo[d]oxazol-2-yl)-8-(methylamino)-2,7-naphthyridin-3-yl)cyclopropanecarboxamide]	≤ 100	≤ 500
CNc1ncc(-c2nc3cc(N4CCOC(C(F)F)C4)ccc3o2)c2cc(NC(=O)C3CC3)ncc12 (stereo not drawn) [Example 329, N-(5-(5-(2-(difluoromethyl)morpholino)benzo[d]oxazol-2-yl)-8-(methylamino)-2,7-naphthyridin-3-yl)cyclopropanecarboxamide]	≤ 100	≤ 500
CNc1ncc(-c2nc3cc(N4CCOC(C(C)(F)F)C4)ccc3o2)c2cc(NC(=O)C3CC3)ncc12 (stereo not drawn) [Example 330, N-(5-(5-(2-(1,1-difluoroethyl)morpholino)benzo[d]oxazol-2-yl)-8-(methylamino)-2,7-naphthyridin-3-yl)cyclopropanecarboxamide]	≤ 100	≤ 500
CNc1ncc(-c2nc3cc(N4CCOC(CO)C4)ccc3o2)c2cc(NC(=O)C3CC3)ncc12 (stereo not drawn) [Example 333, N-(5-(5-(2-(hydroxymethyl)morpholino)benzo[d]oxazol-2-yl)-8-(methylamino)-2,7-naphthyridin-3-yl)cyclopropanecarboxamide]	≤ 100	≤ 500
C=C1COCCN(c2ccc3oc(-c4cnc(NC)c5cnc(NC(=O)C6CC6)cc45)nc3c2)C1 [Example 334, N-(8-(methylamino)-5-(5-(6-methylene-1,4-oxazepan-4-yl)benzo[d]oxazol-2-yl)-2,7-naphthyridin-3-yl)cyclopropanecarboxamide]	≤ 100	≤ 500
CNc1ncc(-c2nc3cc(N4CCOCC(C)C4)ccc3o2)c2cc(NC(=O)C3CC3)ncc12 (stereo not drawn) [Example 335, N-(5-(5-(6-methyl-1,4-oxazepan-4-yl)benzo[d]oxazol-2-yl)-8-(methylamino)-2,7-naphthyridin-3-yl)cyclopropanecarboxamide]	≤ 100	≤ 500
CNc1ncc(-c2nc3cc(OCC4COC4)ccc3o2)c2cc(NC(=O)C3CC3)ncc12 [Example 336, N-(8-(methylamino)-5-(5-(oxetan-3-ylmethoxy)benzo[d]oxazol-2-yl)-2,7-naphthyridin-3-yl)cyclopropanecarboxamide]	≤ 100	≤ 500
CNc1ncc(-c2nc3cc(OCC4CCC4)ccc3o2)c2cc(NC(=O)C3CC3)ncc12 [Example 337, N-(5-(5-(cyclobutylmethoxy)benzo[d]oxazol-2-yl)-8-(methylamino)-2,7-naphthyridin-3-yl)cyclopropanecarboxamide]	≤ 100	> 500
CNc1ncc(-c2nc3cc(OCC#N)ccc3o2)c2cc(NC(=O)C3CC3)ncc12 [Example 338, N-(5-(5-(cyanomethoxy)benzo[d]oxazol-2-yl)-8-(methylamino)-2,7-naphthyridin-3-yl)cyclopropanecarboxamide]	≤ 100	≤ 500
